Laboratory results reported in patent US9901592B2 (priority 2008, dated 2018).
Converted amounts (≈) assume the structure as drawn. Where two headings read alike, the source gives them in different places.

What was measured:
[1] = tested on: U. parvum; assay: MIC testing in 10B broth (colour change); assay type: cell-based, Ureaplasma parvum; conditions: U. parvum (10 isolates)
[2] = tested on: S. pneumoniae; assay: neutropenic mouse thigh infection; assay type: in vivo; conditions: PO
[3] = tested on: M. fermentans; assay type: cell-based; conditions: M. fermentans (15 isolates)
[4] = tested on: S. pyogenes 3029; assay: Intraperitoneal (IP) mouse infection model (ED50); assay type: in vivo; conditions: Streptococcus pyogenes, MAC-R S. pyogenes 3029
[5] = tested on: H. influenzae ATCC 49247; assay: post-antibiotic effect (PAE) testing
[6] = tested on: M. genitalium; assay type: cell-based; conditions: M. genitalium (5 isolates)
[7] = tested on: N. meningitidis; assay: MIC, CLSI broth microdilution, invasive isolates; assay type: cell-based; conditions: Neisseria meningitidis; 62 N. meningitidis isolates
Experimental: Example. […] Colonization of the nasopharynx (NP) by NM can lead to invasive meningococcal disease. Chemoprophylaxis is used to eradicate NP colonization and prevent transmission to nonimmune contacts. […] 62 isolates (91.9% blood culture) of NM were collected from 29 medical centers in North and South America and Europe (1997-2008). […] Serological identification was performed for serogroups (SGs) B, C, Y and W135.

[8] = tested on: S. pneumoniae; assay: MIC of the strains of the mouse systemic infection model; assay type: cell-based; conditions: Streptococcus pneumoniae
[9] = tested on: S. pyogenes ATCC 8668; assay: mouse subcutaneous abscess model; assay type: in vivo; conditions: 48 hr. post infection
Experimental: Example. Mouse Subcutaneous Abscess. Bacteria were prepared from an overnight plate culture by re-suspending in saline and adjusting the suspension to a 0.1 OD at 625 nm of a 1:10 dilution. The adjusted bacterial suspension was mixed 1:2 with cyclodextran beads prepared as per package instructions. The right flanks of the mice were shaven and injected subcutaneously with 0.2 ml of the bacterial inoculum. Two hours post infection mice were treated via oral gavage with either test article or control drug. 48 hours post infection, mice were euthanized, abscesses aseptically removed, homogenized, serially diluted and plated on bacterial growth agar. After overnight incubation, colonies were counted and CFUs/gram of abscess were determined.
Example. Mouse Subcutaneous Abscess˜S. pyogenes ATCC 8668 (Average Log10 CFU/gram of Abscess). Abscess processing 48 hours post infection.

[10] = tested on: S. pyogenes; assay: MIC of the strains of the mouse systemic infection model; assay type: cell-based; conditions: Streptococcus pyogenes
[11] = tested on: viridans group streptococci (VGS); assay type: cell-based; conditions: VGS (51)
[12] = tested on: S. pneumoniae; assay: mouse systemic infection model (PD50); assay type: in vivo
[13] = tested on: S. pyogenes; assay: mouse systemic infection model (PD50); assay type: in vivo
[14] = tested on: intraphagocytic L. pneumophila ATCC 33153 (THP-1); assay type: cell-based; conditions: L. pneumophila ATCC 33153, 48 h
[15] = S. pneumoniae (macrolide susceptible)
[16] = S. pyogenes (macrolide susceptible)

**Q.** Which results are given for CC[C@H]1OC(=O)[C@@](C)(F)C(=O)[C@H](C)[C@@H](OC2OC(C)CC(N(C)C)C2O)[C@@](C)(OC)C[C@@H](C)C(=O)[C@H](C)[C@H]2N(CCCCn3cc(-c4cccc(N)c4)nn3)C(=O)O[C@]12C (stereo partly drawn) [CEM-101, 11-N-4-(3-aminophenyl)-[1,2,3]triazol-1-yl]-butyl}-5-desosaminyl-3-oxo-2-fluoro-erythronolide A,-11,12-cyclic carbamate]?
**A.** MIC Range [1]: 0.002 to 0.031 µg/mL; MIC50 ([1]; Ureaplasma parvum, read-out: MIC50): 0.008 µg/mL (≈ 0.00947 µM); MIC90 ([1]; Ureaplasma parvum, read-out: MIC90): 0.016 µg/mL (≈ 0.0189 µM); Dose for 1 log10 Reduction from 24 hour controls ([2]; S. pneumoniae 1629, QD): 6.0 mg/Kg; Dose for 3 log10 Reduction from 24 hour controls ([2]; S. pneumoniae 1629, QD): 8.0 mg/Kg; 1 log kill ([2]; S. pneumoniae 6303, Q6): 23.0 mg/Kg; EC50 ([2]; S. pneumoniae 6303, Q6): 16.7 mg/kg; Static dose ([2]; S. pneumoniae 6303, Q6): 20.5 mg/kg; 1 log kill ([2]; S. pneumoniae 6303, Q8): 23.0 mg/Kg; Emax ([2]; S. pneumoniae 6303, Q8): 5.01 log10CFU/thigh; Static dose ([2]; S. pneumoniae 6303, Q8): 12.1 mg/kg; 1 log kill ([2]; S. pneumoniae 6303, Q12): 24.0 mg/Kg; Static dose ([2]; S. pneumoniae 6303, Q12): 19.2 mg/kg; Emax ([2]; S. pneumoniae 6303, Q24): 6.38 log10CFU/thigh; Static dose ([2]; S. pneumoniae 6303, Q24): 8.2 mg/kg; Dose for 1 log10 Reduction from 24 hour controls ([2]; S. pneumoniae 6303, QD): 1.2 mg/Kg; Dose for 2 log10 Reduction from 24 hour controls ([2]; S. pneumoniae 6303, QD): 3.0 mg/Kg; Dose for 3 log10 Reduction from 24 hour controls ([2]; S. pneumoniae 6303, QD): 5.0 mg/Kg; MIC Range [3]: ≦0.008 μg/mL; MIC50 ([3]; Mycoplasmopsis fermentans): ≤ 0.008 µg/mL; MIC90 ([3]; Mycoplasmopsis fermentans): ≤ 0.008 µg/mL; ED50 [4]: 2.5 mg/kg; average PAE ([5]; Gram-negative pathogens): 4.5 h; PAE ([5]; H. influenzae ATCC 49247, 4X MIC, exposure 1 hour): 3.2 h; MIC Range [6]: ≦0.000032 μg/mL; MIC50 [7]: ≤ 0.015 µg/mL; MIC90 [7]: ≤ 0.015 µg/mL; MIC [8, 15]: < 0.03 µg/mL; MIC ([8]; S. pneumoniae (mefR), read-out: MIC): < 0.03 µg/mL; Average Log10 CFU/gram of Abscess ([9]; 10 mg/Kg): 5.35 Log10 CFU/gram; Average Log10 CFU/gram of Abscess ([9]; 20 mg/Kg): 2.53 Log10 CFU/gram; MIC ([10]; S. pyogenes (erythromycin R)): 1 µg/mL; MIC [10, 16]: 0.015 µg/mL; MIC50 [11]: ≤ 0.008 µg/mL; MIC90 [11]: 0.06 µg/mL (≈ 0.071 µM); MIC Range [11]: ≦0.008-0.12 μg/ml; PD50 [12, 15]: 6.0 mg/kg; PD50 ([12]; S. pneumoniae (mefR)): 23.2 mg/kg; PD50 ([12]; S. pneumoniae serotype 19A): 6.6 mg/kg; PD50 ([13]; S. pyogenes (erythromycin R)): 5.1 mg/kg; PD50 [13, 16]: 9.4 mg/kg; Cs [14]: 4.56 ×MIC
